This is an account of results in US8562975B2, “Method for stabilizing reduced coenzyme Q10 and composition therefor” (Kaneka Corporation, priority 2002, dated 2013).

A short description of data set [1]: Solubility of reduced coenzyme Q10 crystals in fats and oils at 30° C. In kind it is physicochemical. As for the experimental part:
The solubility of the crystals obtained in Production Example 1 in medium-chain fatty acid triglyceride (MCT, C8:C10=6:4), soybean oil, safflower oil, or rice oil at 30° C. is shown in Table 8.

Data set [2] can be described thus: Storage stability of reduced coenzyme Q10 compositions in the air at 40° C., light-shielded, 3 days (HPLC weight ratio). In kind it is physicochemical. The settings on record: vitamin E content high (4.11% by weight based on the system excluding coenzyme Q10).
Description: The purity and reduced coenzyme Q10/oxidized coenzyme Q10 ratio (weight ratio) were determined by the following HPLC analysis.
C18 (product of Waters), 250 mm (in length), 4.6 mm (in inside diameter): mobile phase; C2H5OH/CH3OH=4/3 (v/v): detection wavelength; 210 nm: flow rate; 1 ml/min: retention time of reduced coenzyme Q10; 9.1 min: retention time of oxidized coenzyme Q10; 13.3 min.
The crystals obtained in Production Example 1 were added to soybean oil, glycerol, and a mixture thereof, respectively, to a concentration of 6% by weight, and the resulting mixtures were stored in the air at 40° C. under a light-shielded condition for 3 days, and the reduced coenzyme Q10/oxidized coenzyme Q10 weight ratios in the solutions were determined.
The crystals obtained in Production Example 1 were added to various fats and oils specified in Table 2, respectively, to a concentration of 6% by weight, and the resulting mixtures were stored in the air at 40° C. under a light-shielded condition for 3 days, and the reduced coenzyme Q10/oxidized coenzyme Q10 weight ratios in the solutions were determined.
The crystals obtained in Production Example 1 were added to olive oil to a concentration of 6% by weight, and the resulting mixture was stored in the air at 40° C. under a light-shielded condition for 3 days. […]

`COc1c(O)c(C)c(C/C=C(\C)CC/C=C(\C)CC/C=C(\C)CC/C=C(\C)CC/C=C(\C)CC/C=C(\C)CC/C=C(\C)CC/C=C(\C)CC/C=C(\C)CCC=C(C)C)c(O)c1OC` [Compar. Ex. 1, reduced coenzyme Q10]: the Solubility was determined as 22.4 wt % in data set [1] (in MCT (C8:C10=6:4) at 30° C.), 10.2 wt % in data set [1] (in rice oil at 30° C.), 11.1 wt % in data set [1] (in safflower oil at 30° C.) and 10.9 wt % in data set [1] (in soybean oil at 30° C.).

For vitamin E, the “effect on stabilization of reduced coenzyme Q10, in words” value in data set [2] was “inhibits the stabilization of reduced coenzyme Q10”.
